From patent US20210395262A1, “INHIBITORS OF HUMAN IMMUNODEFICIENCY VIRUS REPLICATION” (ViiV HEALTHCARE UK (NO.5) LIMITED, priority 2018, published 2021)
pEC50: −log10 of the molar value. Read-outs that look alike come from different tables or passages of the source.

Key:
recombinant NL4-3 virus = assay: HIV cell culture assay (antiviral activity, luciferase readout in MT-2 cells); assay type: cell-based; conditions: Human immunodeficiency virus 1, NL43, MT2
Procedure: HIV cell culture assay—MT-2 cells, 293T cells and the proviral DNA clone of NL4-3 virus were obtained from the […] AIDS Research and Reference Reagent Program. MT-2 cells were propagated in RPMI 1640 media supplemented with 10% heat inactivated fetal bovine serum (FBS), […] penicillin G and up to 100 units/mL streptomycin. The 293T cells were propagated in DMEM media supplemented with 10% heat inactivated FBS, […] penicillin G and […] streptomycin. A recombinant NL4-3 proviral clone, in which a section of the nef gene was replaced with the Renilla luciferase gene, was used to make the reference virus used in these studies. The recombinant virus was prepared through transfection of the recombinant NL4-3 proviral clone into 293T cells using Transit-293 Transfection Reagent from Mirus Bio LLC (Madison, Wis.). Supernatent was harvested after 2-3 days and the amount of virus present was titered in MT-2 cells using luciferase enzyme activity as a marker by measuring luciferase enzyme activity. Luciferase was quantitated using the EnduRen Live Cell Substrate from Promega (Madison, Wis.). Antiviral activities of compounds toward the recombinant virus were quantified by measuring luciferase activity in MT-2 cells infected for 4-5 days with the recombinant virus in the presence of serial dilutions of the compound.
The 50% effective concentration (EC50) was calculated by using the exponential form of the median effect equation where (Fa)=1/[1+(ED50/drug conc.)m] (Johnson V A, Byington R T. Infectivity Assay. In Techniques in HIV Research. ed. Aldovini A, Walker B D. 71-76. New York: Stockton Press. 1990). The 50% inhibitory concentration (EC50) was calculated by using the exponential form of the median effect equation where percent inhibition=1/[1+(EC50/drug concentration)m], where m is a parameter that reflects the slope of the concentration-response curve.

[1] = Compound cytotoxicity, XTT-based colorimetric assay; assay type: cell-based; conditions: human
Procedure: Compound cytotoxicity and the corresponding CC50 values were determined using the same protocol as described in the antiviral assay except that uninfected cells were used. Cytotoxicity was assessed on day 4 in uninfected MT2 cells by using a XTT (2,3-bis[2-Methoxy-4-nitro-5-sulfophenyl]-2H-tetrazolium-5-carboxyanilide inner salt)-based colorimetric assay (Sigma-Aldrich, St Louis, Mo.).

[2] = uninfected MT2 cells, day 4, XTT, read-out: CC50

| Compound | pEC50 (recombinant NL4-3 virus) | CC50 at 4 days [1, 2] [nM] | CC50 at 4 days [1] [nM] |
| --- | --- | --- | --- |
| Cn1nc(NS(C)(=O)=O)c2c(Cl)ccc(-n3c([C@H](Cc4cc(F)cc(F)c4)NC(=O)Cn4nc(C(F)F)c5c4C(F)(F)[C@@H]4C[C@H]54)nc4cc(N5CCC5)ccc4c3=O)c21 (atropisomer, axis not shown; (P)) [Example 18, N—((S)-1-(7-(azetidin-1-yl)-(3P)-3-(4-chloro-1-methyl-3-(methylsulfonamido)-1H-indazol-7-yl)-4-oxo-3,4-dihydroquinazolin-2-yl)-2-(3,5-difluorophenyl)ethyl)-2-((3bS,4aR)-3-(difluoromethyl)-5,5-difluoro-3b,4,4a,5-tetrahydro-1H-cyclopropa[3,4]cyclopenta[1,2-c]pyrazol-1-yl)acetamide] | 10.18 | > 1000 |  |
| COC1CCCN(c2ccc3c(=O)n(-c4ccc(Cl)c5c(NS(C)(=O)=O)nn(C)c45)c([C@H](Cc4cc(F)cc(F)c4)NC(=O)Cn4nc(C(F)F)c5c4C(F)(F)[C@@H]4C[C@H]54)nc3c2)C1 (stereo partly drawn) [Example 29, N-((1S)-1-((3P)-3-(4-chloro-1-methyl-3-(methylsulfonamido)-1H-indazol-7-yl)-7-(3-methoxypiperidin-1-yl)-4-oxo-3,4-dihydroquinazolin-2-yl)-2-(3,5-difluorophenyl)ethyl)-2-((3bS,4aR)-3-(difluoromethyl)-5,5-difluoro-3b,4,4a,5-tetrahydro-1H-cyclopropa[3,4]cyclopenta[1,2-c]pyrazol-1-yl)acetamide] | 10.28 | > 500 |  |
| C[C@@H]1CN(c2ccc3c(=O)n(-c4ccc(Cl)c5c(NS(=O)(=O)C6CC6)nn(CC(F)F)c45)c([C@H](Cc4cc(F)cc(F)c4)NC(=O)Cn4nc(C(F)F)c5c4C(F)(F)[C@@H]4C[C@H]54)nc3c2)C[C@H](C)O1 (atropisomer, axis not shown; (P)) [Example 10, N—((S)-1-((3P)-3-(4-chloro-3-(cyclopropanesulfonamido)-1-(2,2-difluoroethyl)-1H-indazol-7-yl)-7-((2S,6R)-2,6-dimethylmorpholino)-4-oxo-3,4-dihydroquinazolin-2-yl)-2-(3,5-difluorophenyl)ethyl)-2-((3bS,4aR)-3-(difluoromethyl)-5,5-difluoro-3b,4,4a,5-tetrahydro-1H-cyclopropa[3,4]cyclopenta[1,2-c]pyrazol-1-yl)acetamide] | 10.14 | > 500 |  |
| CN1CCN(c2ccc3c(=O)n(-c4ccc(Cl)c5c(NS(C)(=O)=O)nn(C)c45)c([C@H](Cc4cc(F)cc(F)c4)NC(=O)Cn4nc(C(F)F)c5c4C(F)(F)[C@@H]4C[C@H]54)nc3c2)CC1 (atropisomer, axis not shown; (P)) [Example 11, N—((S)-1-((3P)-3-(4-chloro-1-methyl-3-(methylsulfonamido)-1H-indazol-7-yl)-7-(4-methylpiperazin-1-yl)-4-oxo-3,4-dihydroquinazolin-2-yl)-2-(3,5-difluorophenyl)ethyl)-2-((3bS,4aR)-3-(difluoromethyl)-5,5-difluoro-3b,4,4a,5-tetrahydro-1H-cyclopropa[3,4]cyclopenta[1,2-c]pyrazol-1-yl)acetamide] | 9.93 | > 10000 |  |
| C[C@@H]1CN(c2ccc3c(=O)n(-c4ccc(Cl)c5c(NS(C)(=O)=O)nn(CC(F)F)c45)c([C@H](Cc4cc(F)cc(F)c4)NC(=O)Cn4ccc(C5CCC5)n4)nc3c2)C[C@H](C)O1 (atropisomer, axis not shown; (P)) [Example 50, N—((S)-1-((3P)-3-(4-chloro-1-(2,2-difluoroethyl)-3-(methylsulfonamido)-1H-indazol-7-yl)-7-((2S,6R)-2,6-dimethylmorpholino)-4-oxo-3,4-dihydroquinazolin-2-yl)-2-(3,5-difluorophenyl)ethyl)-2-(3-cyclobutyl-1H-pyrazol-1-yl)acetamide] | 9.04 | > 500 |  |
| Cn1nc(NS(C)(=O)=O)c2c(Cl)ccc(-n3c([C@H](Cc4cc(F)cc(F)c4)NC(=O)Cn4nc(C(F)F)c5c4C(F)(F)[C@@H]4C[C@H]54)nc4cc(N5CCC6(CC5)COC6)ccc4c3=O)c21 (atropisomer, axis not shown; (P)) [Example 25, N—((S)-1-((3P)-3-(4-chloro-1-methyl-3-(methylsulfonamido)-1H-indazol-7-yl)-4-oxo-7-(2-oxa-7-azaspiro[3.5]nonan-7-yl)-3,4-dihydroquinazolin-2-yl)-2-(3,5-difluorophenyl)ethyl)-2-((3bS,4aR)-3-(difluoromethyl)-5,5-difluoro-3b,4,4a,5-tetrahydro-1H-cyclopropa[3,4]cyclopenta[1,2-c]pyrazol-1-yl)acetamide] | 10.02 | > 500 |  |
| Cn1nc(NS(C)(=O)=O)c2c(Cl)ccc(-n3c([C@H](Cc4cc(F)cc(F)c4)NC(=O)Cn4nc(C(F)F)c5c4C(F)(F)[C@@H]4C[C@H]54)nc4cc(N5C6COCC5COC6)ccc4c3=O)c21 [Example 6, N—((S)-1-(7-(3,7-dioxa-9-azabicyclo[3.3.1]nonan-9-yl)-(3P)-3-(4-chloro-1-methyl-3-(methylsulfonamido)-1H-indazol-7-yl)-4-oxo-3,4-dihydroquinazolin-2-yl)-2-(3,5-difluorophenyl)ethyl)-2-((3bS,4aR)-3-(difluoromethyl)-5,5-difluoro-3b,4,4a,5-tetrahydro-1H-cyclopropa[3,4]cyclopenta[1,2-c]pyrazol-1-yl)acetamide] | 9.84 |  | > 500 |
| Cc1cc(C(F)F)nn1C(C)C(=O)N[C@@H](Cc1cc(F)cc(F)c1)c1nc2cc(N3C[C@@H](C)O[C@@H](C)C3)ccc2c(=O)n1-c1ccc(Cl)c2c(NS(C)(=O)=O)nn(CC(F)F)c12 (stereo partly drawn) [Example 51, N—((S)-1-((3P)-3-(4-chloro-1-(2,2-difluoroethyl)-3-(methylsulfonamido)-1H-indazol-7-yl)-7-((2S,6R)-2,6-dimethylmorpholino)-4-oxo-3,4-dihydroquinazolin-2-yl)-2-(3,5-difluorophenyl)ethyl)-2-(3-(difluoromethyl)-5-methyl-1H-pyrazol-1-yl)propanamide] | 8.72 | > 500 |  |
| Cn1nc(NS(C)(=O)=O)c2c(Cl)ccc(-n3c([C@H](Cc4cc(F)cc(F)c4)NC(=O)Cn4nc(C(F)F)c5c4C(F)(F)[C@@H]4C[C@H]54)nc4cc(N5CC(S(C)(=O)=O)C5)ccc4c3=O)c21 (atropisomer, axis not shown; (P)) [Example 26, N—((S)-1-((3P)-3-(4-chloro-1-methyl-3-(methylsulfonamido)-1H-indazol-7-yl)-7-(3-(methylsulfonyl)azetidin-1-yl)-4-oxo-3,4-dihydroquinazolin-2-yl)-2-(3,5-difluorophenyl)ethyl)-2-((3bS,4aR)-3-(difluoromethyl)-5,5-difluoro-3b,4,4a,5-tetrahydro-1H-cyclopropa[3,4]cyclopenta[1,2-c]pyrazol-1-yl)acetamide] | 9.53 | > 500 |  |
